Values after ≈ are worked out from the molar mass of the structure shown. Like-named read-outs stand apart in the source and are kept apart here.
What was measured:
[1] = tested on: S. mutans ATCC 25175; assay: Minimum inhibitory concentration (MIC) assay; format: cell-based, Streptococcus mutans
Procedure: (§1) S. mutans was cultured and maintained on Wilkins-Chalgren Anaerobe Medium (agar and broth) at pH 7.0 supplemented with 1 g/L glucose; all cultures were incubated at 37° C. for 48 hours in an atmosphere containing 5% CO2. For the formation of biofilms in biofilm disruption assays, however, S. mutans was grown in brain-heart infusion broth supplemented with 5% sucrose. This is a standard international method for quantitatively assessing the antimicrobial activity of a compound in a liquid medium. The method used a sterile 96-well microtitre plate, capable of holding about 200 μl of liquid per well. […] The culture medium was as described above. The wells were inoculated with a liquid suspension of freshly grown micro-organism and incubated under the conditions described above. After incubation, the microtitre plate was examined visually (with the aid of a light box) for cloudiness in each well, which would indicate microbial growth. The MIC value was recorded as the lowest concentration of test compound required to inhibit microbial growth, ie the lowest concentration for which the liquid in the well remained clear. The assays were conducted in duplicate (minimum) and included both negative (culture medium with no micro-organisms) and positive (culture medium plus diluting solvent plus micro-organism) controls.

[2] = tested on: S. mutans ATCC 25175; assay: Minimum bactericidal concentration (MBC) assay; format: cell-based, Streptococcus mutans
Procedure: S. mutans was cultured and maintained on Wilkins-Chalgren Anaerobe Medium (agar and broth) at pH 7.0 supplemented with 1 g/L glucose; all cultures were incubated at 37° C. for 48 hours in an atmosphere containing 5% CO2. For the formation of biofilms in biofilm disruption assays, however, S. mutans was grown in brain-heart infusion broth supplemented with 5% sucrose.
(§2) This assay, normally carried out after an MIC assay, determines the minimum concentration of a compound that is lethal to the micro-organism being tested.
(§3) These samples were then individually sub-cultured on antibiotic-free agar medium, under the incubation conditions described above. Following incubation they were examined visually for microbial growth.
(§4) The ratio of MIC to MBC should ideally be as close to 1 as possible.

[3] = tested on: P. gingivalis NCTC 11834; assay: Minimum bactericidal concentration (MBC) assay; format: cell-based, Porphyromonas gingivalis
Procedure: P. gingivalis strains were cultured and maintained on Wilkins-Chalgren Anaerobe Medium (agar and broth) at pH 7.0; all cultures were incubated anaerobically at 37° C. for 5-7 days.
as §2, §3, §4

[4] = tested on: P. gingivalis NCTC 11834; assay: Minimum inhibitory concentration (MIC) assay; format: cell-based, Porphyromonas gingivalis
Procedure: as §1, with “P. gingivalis strains were cultured and” for “S. mutans was cultured and”, “at pH 7.0; all cultures” for “at pH 7.0 supplemented with 1 g/L glucose; all cultures”, “were incubated anaerobically at 37°” for “were incubated at 37°”, “C. for 5-7 days. This is” for “C. for 48 hours in an atmosphere containing 5% CO2. For the formation of biofilms in biofilm disruption assays, however, S. mutans was grown in brain-heart infusion broth supplemented with 5% sucrose. This is”

[5] = tested on: P. gingivalis NCTC 11834; assay: Short-contact kill assay (SCKA); format: cell-based, Porphyromonas gingivalis; settings: 0.2% (w/v)
Procedure: (§5) This quantitative assay was designed to determine the relative potency of a test compound or combination of test compounds to kill a test micro-organism over a short-contact time period (up to 5 minutes).
(§6) Samples from a culture of micro-organisms (ca. 1×10^8 cfu/ml) prepared in phosphate buffered saline (PBS) containing the relevant test compound(s) were taken at timed intervals (between 0 and 5 minutes), 10-fold serially diluted in PBS and then inoculated onto agar plates in triplicate. A culture containing only the solvent(s) used to dissolve the test compound(s) acted as a control for the assay (maximum solvent load 2.5% v/v).
(§7) The plates were then incubated as described above and subsequently examined visually for growth. Colonies were counted at an appropriate serial dilution (5-50 individual colonies visible) with the aid of a colony counter. These measurements were then converted to numbers of colony forming units (cfu), using the formula: cfu/ml=number of colonies×serial dilution factor×100 (as only a […] was taken).
(§8) These cfu values were then converted into […] values and plotted graphically against time of sample removal.
(§9) At each time point, samples were assessed in triplicate; the final cfu/ml value was an average (mean) of the three readings.
(§10) SCKAs, as described above, were carried out using TBHQ as the test compound. Chlorhexidine was used as a positive control and 2.5% ethanol as a negative control.
(§11) For the SCKA experiments, the TBHQ and chlorhexidine were both tested at concentrations of 0.2% w/v. The TBHQ was dissolved in ethanol and the chlorhexidine in distilled water. All the experiments were conducted in triplicate.

[6] = tested on: S. mutans ATCC 25175; assay: Short-contact kill assay (SCKA); format: cell-based, Streptococcus mutans; settings: 0.2% (w/v)
Procedure: as §5, §6, §7, §8, §9, §10, §11

[7] = tested on: P. gingivalis 381 biofilm; assay: Biofilm disruption assay on hydroxyapatite discs; format: cell-based, Porphyromonas gingivalis; settings: 0.2% (w/v)
Procedure: (§12) This assay was designed to determine quantitatively the relative potency of a test compound to disrupt (effectively kill) biofilms formed by a test organism on hydroxyapatite (HA) discs. Biofilms were formed on sterile dense ceramic HA discs 7 mm diameter×1.8 mm thick (Clarkson Chromatography) by placing the discs in the appropriate liquid media (as described above) inoculated with the test organism (0.5×10^8 cfu/ml). The HA discs were then incubated at 37° C. for ˜48 hours in a 5% CO2 atmosphere (for S. mutans ATCC 25175) or ˜96 hours under anaerobic conditions (for P. gingivalis 381). Following the incubation period the supernatant was removed from the wells containing the HA discs and the discs were washed x3 with fresh media to ensure all planktonic cells were removed. The HA discs were then transferred to sterile bijoux bottles containing 1 ml of phosphate buffered saline (PBS) plus test compound(s) at the required concentration. After a set time period (usually 2 and/or 5 min), the HA disc was transferred to another sterile bijoux containing 1 ml of fresh growth media. Adherent cells were then harvested by vigorous vortexing for 2 minutes. A sample was then taken, serially diluted 10-fold in fresh growth media and inoculated onto agar plates in triplicate. Untreated HA discs, and HA discs added to PBS containing only the solvents used to dissolve the test compound(s), acted as controls. The plates were then incubated as described above and subsequently examined visually for growth. Colonies were counted at an appropriate serial dilution (5-50 individual colonies visible) with the aid of a colony counter. These measurements were then converted to numbers of colony forming units (cfu), using the formula: cfu/ml=number of colonies×serial dilution factor×100 (as only a 10 μl sample was taken). These cfu values were then converted into log10 values and plotted graphically against time of sample removal. At each time point, samples were assessed in triplicate; the final cfu/ml value was an average (mean) of the three readings. Biofilm disruption assays, as described above, were carried out using TBHQ as the test compound and chlorhexidine as a positive control. The negative control was 5% ethanol. For these experiments, the TBHQ and chlorhexidine were tested at concentrations of 0.2% w/v. The TBHQ was dissolved in ethanol and the chlorhexidine in distilled water. All the experiments were conducted in triplicate.

[8] = tested on: S. mutans ATCC 25175 biofilm; assay: Biofilm disruption assay on hydroxyapatite discs; format: cell-based, Streptococcus mutans; settings: 0.2% (w/v)
Procedure: as §12

[9] = tested on: Acinetobacter baumanni ATCC 19606; assay: MBC assay; format: cell-based
Procedure: as §2, §3

[10] = tested on: Pseudomonas aeruginosa ATCC 27853; assay: MBC assay; format: cell-based
Procedure: as §2, §3

[11] = tested on: Escherichia coli ATCC 25922; assay: MBC assay; format: cell-based
Procedure: as §2, §3

[12] = tested on: Klebsiella pneumoniae ATCC 700603; assay: MBC assay; format: cell-based
Procedure: as §2, §3

[13] = 1 min, 3.00 = limit of detection
[14] = 0.5 min, 3.00 = limit of detection
[15] = 5 min, 2.00 = limit of detection

Row | MIC ([1]; Table 8) [µg/mL] | MIC ([4]; Table 7) [µg/mL] | Compound | MBC ([2]; Table 8) [µg/mL] | MIC/MBC ratio ([2]; Table 8) | MBC ([3]; Table 7) [µg/mL] | MIC/MBC ratio ([3]; Table 7) | MIC/MBC ratio ([2]; Tables 1, 2) | Viable cell counts ([5]; 0 min) [Log10 cfu/ml] | Viable cell counts ([5]; 0.5 min) | Viable cell counts [5, 13] | Viable cell counts ([6]; 0 min) [Log10 cfu/ml] | Viable cell counts [6, 14] | Viable cell counts [6, 13] | MIC/MBC ratio ([3]; Tables 1, 2) | Viable cell counts ([7]; 0 min) [Log10 cfu/ml] | Viable cell counts ([7]; 2 min) [Log10 cfu/ml] | Viable cell counts [7, 15] | Viable cell counts ([8]; 0 min) [Log10 cfu/ml] | Viable cell counts ([8]; 2 min) [Log10 cfu/ml] | Viable cell counts ([8]; 5 min) [Log10 cfu/ml] | other results
1 | 31.2 (≈ 161 µM) | 3.9 (≈ 20.1 µM) | CCCCCCc1ccc(O)cc1O [4-hexyl resorcinol] | 125 (≈ 643 µM) | 0.25 | 7.8 (≈ 40.1 µM) | 0.5 |  |  |  |  |  |  |  |  |  |  |  |  |  |  | 
2 |  |  | [H]/N=C(\N/C(=N/[H])NCCCCCCNC(=N)NC(=N)Nc1ccc(Cl)cc1)Nc1ccc(Cl)cc1 [CHX, chlorhexidine, reference compound] |  |  |  |  | 0.5 | 9.29 | *3.00 Log10 cfu/ml | *3.00 Log10 cfu/ml | 8.05 | *3.00 Log10 cfu/ml | *3.00 Log10 cfu/ml | 1 | 7.74 | 6.08 | 6.29 Log10 cfu/ml | 6.36 | 5.00 | 5.21 | MIC ([1]; Streptococcus mutans, ATCC25175, Tables 1, 2, read-out: MIC): 0.625 µg/mL (≈ 1.24 µM); MBC ([2]; Streptococcus mutans, ATCC25175, Tables 1, 2, read-out: MBC): 1.25 µg/mL (≈ 2.47 µM); MBC ([3]; Porphyromonas gingivalis, NCTC11834, Tables 1, 2, read-out: MBC): 0.98 µg/mL (≈ 1.94 µM); MIC ([4]; Porphyromonas gingivalis, NCTC11834, Tables 1, 2, read-out: MIC): 0.98 µg/mL (≈ 1.94 µM)
3 |  |  | CC(C)(C)c1cc(O)ccc1O [TBHQ, t-butyl-p-hydroquinone] |  |  |  |  | 1 | 9.32 | 6.50 Log10 cfu/ml | *3.00 Log10 cfu/ml | 7.64 | 7.56 Log10 cfu/ml | 7.36 Log10 cfu/ml | 0.5 | 7.74 | 6.52 | *2.00 Log10 cfu/ml | 6.36 | 6.52 | 6.24 | MIC ([1]; Tables 1, 2): 31.25 µg/mL (≈ 188 µM); MBC ([2]; Tables 1, 2): 31.25 µg/mL (≈ 188 µM); MBC [9]: 500 µg/mL (≈ 3010 µM); MBC [10]: > 1000 µg/mL; MBC [11]: 500 µg/mL (≈ 3010 µM); MBC [12]: 1000 µg/mL (≈ 6020 µM); MBC ([3]; Tables 1, 2): 0.98 µg/mL (≈ 5.9 µM); MIC ([4]; Tables 1, 2): 0.49 µg/mL (≈ 2.95 µM)
4 | 1.95 (≈ 11.7 µM) | < 0.49 | Cc1cc(O)c(C(C)C)cc1O [Thymohydroquinone, thymohydroquinone] | 250 (≈ 1500 µM) | 0.008 | 0.98 (≈ 5.9 µM) | <0.5 |  |  |  |  |  |  |  |  |  |  |  |  |  |  | 
5 | 3.9 (≈ 23.8 µM) | 0.49 (≈ 2.98 µM) | CC1=CC(=O)C(C(C)C)=CC1=O [Thymoquinone, thymoquinone] | > 250 | <0.0156 | 0.98 (≈ 5.97 µM) | 0.5 |  |  |  |  |  |  |  |  |  |  |  |  |  |  | 

Row | Compound | MIC ([1]; Table 8) [µg/mL] | MIC ([4]; Table 7) [µg/mL] | MBC ([2]; Table 8) [µg/mL] | MIC/MBC ratio ([2]; Table 8) | MBC ([3]; Table 7) [µg/mL] | MIC/MBC ratio ([3]; Table 7) | MIC/MBC ratio ([2]; Tables 1, 2) | Viable cell counts ([5]; 0 min) [Log10 cfu/ml] | Viable cell counts ([5]; 0.5 min) | Viable cell counts [5, 13] | Viable cell counts ([6]; 0 min) [Log10 cfu/ml] | Viable cell counts [6, 14] | Viable cell counts [6, 13] | MIC/MBC ratio ([3]; Tables 1, 2) | Viable cell counts ([7]; 0 min) [Log10 cfu/ml] | Viable cell counts ([7]; 2 min) [Log10 cfu/ml] | Viable cell counts [7, 15] | Viable cell counts ([8]; 0 min) [Log10 cfu/ml] | Viable cell counts ([8]; 2 min) [Log10 cfu/ml] | Viable cell counts ([8]; 5 min) [Log10 cfu/ml] | other results
6 | CC(C)(C)C1=CC(=O)C=CC1=O [2-t-butyl-p-benzoquinone] | 31.2 (≈ 190 µM) | < 0.49 | 62.5 (≈ 381 µM) | 0.5 | < 0.49 |  |  |  |  |  |  |  |  |  |  |  |  |  |  |  | 
